{
  "source": "patent US20050101530A1",
  "about": "“Cellular virus receptors and methods of use” (Topigen Pharmaceutique, Inc., priority 2001, published 2005)",
  "key": {"[1]": {"target": "human chemokine receptor CCR3 (human) (UniProt P51677)", "assay": "cell-based or functional assay"}, "[2]": {"target": "T1, RSV-G protein and CCR3 receptor (Homo sapiens, UniProt P51677)", "T1 construct": "physical contact between the CCR3 receptor and the RSV-G protein in Hep-2 cells; endogenous in cells; host or cells: Hep-2 epithelial cells (ATCC) infected with RSV A2 (ATCC)", "T1 sequence (P51677 1-355)": "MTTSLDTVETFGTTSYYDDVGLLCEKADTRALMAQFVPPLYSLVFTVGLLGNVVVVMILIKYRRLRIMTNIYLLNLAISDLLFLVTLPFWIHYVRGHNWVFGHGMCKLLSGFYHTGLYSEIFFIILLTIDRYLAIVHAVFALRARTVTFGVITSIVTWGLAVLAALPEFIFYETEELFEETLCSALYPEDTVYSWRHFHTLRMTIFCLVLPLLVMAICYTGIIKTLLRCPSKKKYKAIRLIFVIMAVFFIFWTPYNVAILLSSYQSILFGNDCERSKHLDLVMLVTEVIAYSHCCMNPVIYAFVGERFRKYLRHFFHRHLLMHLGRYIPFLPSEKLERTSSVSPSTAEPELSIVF", "assay": "Anti-CCR3 immunoprecipitation and anti-RSV-G Western blot of RSV-infected Hep2 cells", "format": "cell-based", "details": "Hep2 cells infected by RSV in the presence of 2 μg/ml of Eotaxin; FIG. 1 lane 3", "protocol": "(§1) A549, Hep2, or GHOST cells were infected by RSV A2 strain at different multiplicity of infection (MOI). The results presented in this work were performed at a MOI of 1:0.1. The MOI 1:0.1 is the cut off of permissive and restrictive infection. The cells expressing the chemokine receptor CCR3 (Ghost-CCR3+, Hep2 and A549) were found permissive at a MOI 1:0.1 and the chemokine receptor CCR3 is considered as the high affinity coreceptor for RSV infection. Infection experiments undertaken with GHOST cells expressing only one of the following chemokine receptors the CCR1, CCR2b, CCR4, CCR5, CCR8 or CXCR4, were performed at a MOI of 1:2. These GHOST cells (CCR1, CCR-2b, CCR-4, CCR-5, CCR-8 and CXCR4), were not infected at a MOls of 1:0.1 and 1:1. The chemokine receptors CCR1, CCR2, CCR4, CCR5, CCR8 were considered subsequently as low affinity coreceptors in regard to RSV infection. […] These cells were not infected by RSV at a MOI 1:5 and lesser (1:4, 1:3, 1:2, 1:1 and 1:0.1).\nCells were infected by RSV for 2 hr incubation in the presence or the absence of 2 μg/ml of Eotaxin, or of PBS solution and cultured for 3 days. […]\nHep2 cells are known for being a permissive target cell for RSV infection and these cells express several chemokine receptors. […] However, keeping in mind that all cell extracts were normalized to the same quantity of proteins before being loaded into SDS-PAGE. […]"}, "RSV A2": {"test_system": "RSV A2", "assay": "RSV plaque formation (infectivity) inhibition test in Hep-2 cell cultures", "format": "cell-based, respiratory syncytial virus (RSV) A2 strain", "details": "Hep-2 cells", "protocol": "The A2 strain of RSV was purchased from ATCC. The RSV was inoculated into a sub-confluent Hep-2 cell monolayer. […] The contents of the flask was resuspended in 1 ml aliquots, quick-frozen with alcohol/dry ice, and stored at −80° C. The virus titer of RSV was assessed by quantitative plaque forming assay and maintained titers in the range of 10^6 to 10^8pfu/ml for more than 6 months at −70° C.\nHep2 cells are known for being a permissive target cell for RSV infection and these cells express several chemokine receptors. Serial rounds of infections were performed with Hep-2 cells at different MOIs, ranging from 1:5 to 1:0.1. Hep-2 cells were systematically infected at these ranges of MOI. Subsequent experimental infection of Hep-2 cells with RSV were realized at a MOI 1:0.1. We investigated the role of the chemokine receptor CCR3 in supporting RSV infection. Immunoprecipitation technique followed by analysis of the immunoprecipitated complexes by SDS-PAGE were performed in order to gain insight into the physical contact between the RSV-G protein and the CCR3 receptor. Immunoprecipitation of the immune complexes will allow to assess, using SDS-PAGE and a specific antibody for the RSV-G protein, whether or not the contact of the virus glycoprotein with the cell receptor occurred. […] We noticed here that although the monoclonal antibody to RSV-G protein was diluted to 1:5000, it still cross reacted with a determinant of 43-45 kDa in all non infected or control cell types used in this work (see FIG. 1 lane 2). However, keeping in mind that all cell extracts were normalized to the same quantity of proteins before being loaded into SDS-PAGE. Therefore, the high intensity of the band, recognized by anti-RSV-G, and corresponding to the RSV-G protein precursor allowed us to differentiate between real infection and the background due to cross reactivity. We assessed if the CCR3 receptor was involved in virus infectivity of epithelial cells by performing RSV infectivity inhibition tests as described above. […]"}, "RSV": {"test_system": "RSV", "assay": "RSV infection of CCR3 transfected GHOST cells, immunostaining", "format": "cell-based, respiratory syncytial virus (RSV) A2 strain", "details": "Eotaxin 1 μg/ml, anti-RSV F-protein immunostaining, FIG. 3B", "protocol": "as §1\nWe have also assessed whether CCR3 transfected GHOST cells support RSV infection and produce infectious virus. We performed this by using the same methods as described in FIG. 3. […]\nAfter fixing the cells in 4% paraformaldehyde in phosphate buffered saline (PBS), the presence of virus was detected by immunostaining. […]"}},
  "data": [
    {"substance": "Eotaxin (from UniProt P51671 24-97) (ligand)", "values": [
      {"measurement": "percent inhibition of virus plaques formation (RSV A2 on Hep-2 cells)", "setting": "[1]", "result": 80, "unit": "%"}
    ]},
    {"substance": "Rat anti-human CCR3 (clone 61828.111) (antibody)", "values": [
      {"measurement": "decrease in RSV infection of CCR3+ GHOST cells, immunostaining", "setting": "[1]", "result": 80, "unit": "%"}
    ]},
    {"substance": "Eotaxin", "values": [
      {"measurement": "detection of RSV-G protein by RSV-G mAb in anti-CCR3 immunoprecipitated extracts", "setting": "[2]", "result": "failed to recognize the RSV-G protein"},
      {"measurement": "percent inhibition of virus plaques formation", "setting": "RSV A2; Eotaxin greater or equal to 0.5 μg/ml, compared to PBS-treated cultures, three days post infection", "result": 80, "unit": "%"},
      {"measurement": "RSV plaques as compared with PBS controls", "setting": "RSV A2; each concentration of Eotaxin tested (0.01 to 1.0 μg/ml), p<0.05, Student's t-test", "result": "statistically fewer RSV plaques"},
      {"measurement": "timing of inhibition of RSV infection (FIG. 2)", "setting": "RSV A2; eotaxin added to culture medium, during virus adsorption", "result": "inhibited RSV infection most effectively early in infection"},
      {"measurement": "RSV infection of GHOST/CCR3 cells by immunostaining", "setting": "RSV", "result": "inhibits infection by RSV"},
      {"measurement": "RSV infection of GHOST/CCR3 cells by immunostaining", "setting": "RSV; listed as eotaxin", "result": "inhibits cellular infection by RSV"}
    ]}
  ]
}
